Data set [1] has as its target CYP2D4 (Homo sapiens, UniProt P10635). Put plainly: Cyp enzyme inhibition assay in human liver microsomes, CYP2D4. It counts as in vitro ADME. Particulars: both sexes, pooled human liver microsomes, pH 7.4, probe dextromethorphan, CYP2D4, substrate dextromethorphan. As for the experimental part: (§1) The ability of the compound I-1 to inhibit human metabolizing enzymes CYP3A4, CYP2C9, […], CYP2C19 and CYP1A2, was assessed using those enzymes found collectively in human liver microsomes. The test compound I-1 was prepared as a solution in DMSO or acetonitrile and plated in duplicate rows of a 96-well plate (Nunc) for a final assay concentration of 40 μM in 0.2% DMSO (or 2% acetonitrile) in the first column and serially diluted two-fold going down the row. A known selective inhibitor of a given CYP enzyme listed in Table 8 was selected as the appropriate positive control. For each CYP enzyme inhibition assay, an appropriate enzyme-substrate mixture was prepared to afford a final assay concentration of 75 mM KPO4/pH 7.4, 6.5 mM MgCl2, 0.25 mg/mL pooled male and female human liver microsome (CellzDirect lot HMMC-PL020) with the amounts of the appropriate substrate for each CYP enzyme assay given in Table 8. The enzyme-substrate mixture was added to columns 1 through 10 and column 11 served as a negative control with enzyme solution lacking substrate. A solution of NADPH (Calbiochem) was then added to all rows except for one where NADPH would be added after the incubation period, in order to detect NADPH-independent non-CYP-mediated metabolism. The plate was briefly vortexed and left to shake in a 37° C. water bath for 20 minutes. […]
On the technique in general: Liver microsomes are vesicles of endoplasmic reticulum, rich in cytochrome P450 enzymes.

Data set [2] has as its target FLT3 (ITD) (Homo sapiens, UniProt P36888, ITD). Put plainly: biochemical. It counts as binding.
Method: (§2) Competition binding assays used herein were developed, validated and performed as described in Fabian et al., Nature Biotechnology 2005, 23, 329-336. Kinases were produced as fusions to T7 phage (See, Fabian et al. or WO04/015142) or alternatively, the kinases were expressed in HEK-293 cells and subsequently tagged with DNA for PCR detection (See, WO08/005,310). […] The liganded beads were blocked with excess biotin and washed with blocking buffer (SeaBlock (Pierce), 1% BSA, 0.05% Tween 20, 1 mM DTT) to remove unbound ligand and to reduce non-specific binding. […] Test compounds were prepared as 100× stocks in DMSO and rapidly diluted into the aqueous environment. DMSO was added to control assays lacking a test compound. […] The kinase concentration in the eluates was measured by quantitative PCR. Each kinase was tested individually against each compound. Kds were determined using eleven serial threefold dilutions.
Data set [3] is described as follows: Aqueous and surfactant solubility. It is filed as physicochemical. Particulars: kinetic from dmso stock, room temperature overnight.
Method: After equilibration at room temperature overnight the solutions were filtered and solute concentration determined by fast gradient HPLC without further dilution of the samples. […] These analytical standards were prepared from a 500 μM intermediate stock solution made by diluting 10 μl of the 10 mM sample stocks into 190 μl of 50:50 (v/v) acetonitrile/water. Aliquots of this solution were transferred in duplicate into a 96 well plate in the amounts of 0.4, 2, 4, 20, 40, and 100 μl with the volumes made up to 200 total μl with acetonitrile/water and the plate was then heat sealed with a foil sheet. Prior to sample filtration, filters were primed with 600 μl of sample to resolve potential adsorption problems. Both sample replicates were collected through the primed filter. Duplicate determinations were made in all cases.
Data set [4] concerns the target T1, CYP2C19 (Homo sapiens (Human), UniProt P33261). The experiment in a line: Inhibitory constant KI in human liver microsomes, CYP2C19. It is filed as in vitro ADME. Particulars: for Ki: CYP2C19, global non-linear regression. As for the experimental part: A 2 mM stock of Compound I-1 was prepared in acetonitrile (ACN) and serially diluted 2-fold from 2000 μM to 15.63 μM in ACN. […] Individual human liver microsome preparations containing the substrate were then incubated with Compound I-1 (final concentration range 40 μM to 0.31 μM of Compound I-1) for a final incubation concentration of 0.5 mg/mL microsome, 75 mM KPO4, 6.5 mM MgCl2, 1 mM NADPH and 2% acetonitrile (ACN). The samples were incubated in a 37° C. shaking water bath for 20 minutes then quenched with ACN:water (75:25) containing internal standards propranolol at 0.3 ng/mL and cortisone at 0.3 ng/mL. After brief mixing, the plate was centrifuged and the supernate removed for analysis by LC/MS/MS (API 4000 Qtrap) for formation of 6-hydroxy-testosterone (CYP3A4), 4-hydroxy-mephenyloin (CYP2C19) or hydroxy-taxol (CYP2C8). The data was analyzed using global non-linear regression software (GraphPad Prism) and the overall fit of the data (R^2) was used to determine if Compound I-1 was a competitive, non-competitive, or uncompetitive inhibitor. In addition the data was plotted as a Lineweaver-Burke graph (1/V versus 1/S, where V is the […] and S is the substrate concentration) for each inhibitor concentration. Based on the location of convergence (competitive and non-competitive) or non convergence (uncompetitive) of the plots at each inhibitor concentration, the type of inhibition was determined.
Global non-linear regression allows analysis of all the individual inhibitor curves simultaneously and determines the best fit value for shared parameters between the data sets, in this case KI (or KI′). The results of the global nonlinear analysis of Compound I-1 inhibition of the CYP450 isoforms 3A4, 2C19 and 2C8 are shown in Table 12.

The target in data set [5] is FLT3 (D835Y) (Homo sapiens (Human), UniProt P36888, D835Y). Put plainly: biochemical. It is filed as binding.
Method: as §2
The target in data set [6] is T1, CYP2C19. Put plainly: Cyp enzyme inhibition assay in human liver microsomes, CYP2C19. Particulars: CYP2C19, substrate mephenytoin. It is filed as in vitro ADME. As for the experimental part: as §1
The target in data set [7] is FLT3 (D835H) (Homo sapiens (Human), UniProt P36888, D835H). Put plainly: biochemical. It is filed as binding.
Method: as §2

Molecules are shown by their SMILES. In brackets after ≈: the same amount, converted by molar mass. Entries after “also recorded” stand apart in the source; their conditions may differ. Where two headings read alike, the source gives them in different places.

Consider one compound from US8551963B2, “Imidazolothiazole compounds and methods of use thereof” (Ambit Biosciences Corporation, priority 2008, dated 2013).

T1 sequence (P33261 whole entry): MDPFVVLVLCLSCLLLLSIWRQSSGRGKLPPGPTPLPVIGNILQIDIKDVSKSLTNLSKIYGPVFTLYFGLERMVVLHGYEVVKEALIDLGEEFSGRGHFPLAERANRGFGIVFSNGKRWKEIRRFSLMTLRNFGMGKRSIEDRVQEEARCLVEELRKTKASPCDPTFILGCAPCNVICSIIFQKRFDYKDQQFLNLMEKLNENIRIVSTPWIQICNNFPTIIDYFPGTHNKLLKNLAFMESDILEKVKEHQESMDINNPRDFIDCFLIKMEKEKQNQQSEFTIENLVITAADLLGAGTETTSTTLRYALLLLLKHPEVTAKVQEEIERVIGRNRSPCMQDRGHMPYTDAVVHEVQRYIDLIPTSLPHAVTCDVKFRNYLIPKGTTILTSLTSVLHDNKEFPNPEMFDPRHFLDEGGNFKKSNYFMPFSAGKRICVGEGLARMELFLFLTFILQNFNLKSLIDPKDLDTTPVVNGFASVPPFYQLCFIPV
CYP2D4, sequence (P10635 whole entry, looked up): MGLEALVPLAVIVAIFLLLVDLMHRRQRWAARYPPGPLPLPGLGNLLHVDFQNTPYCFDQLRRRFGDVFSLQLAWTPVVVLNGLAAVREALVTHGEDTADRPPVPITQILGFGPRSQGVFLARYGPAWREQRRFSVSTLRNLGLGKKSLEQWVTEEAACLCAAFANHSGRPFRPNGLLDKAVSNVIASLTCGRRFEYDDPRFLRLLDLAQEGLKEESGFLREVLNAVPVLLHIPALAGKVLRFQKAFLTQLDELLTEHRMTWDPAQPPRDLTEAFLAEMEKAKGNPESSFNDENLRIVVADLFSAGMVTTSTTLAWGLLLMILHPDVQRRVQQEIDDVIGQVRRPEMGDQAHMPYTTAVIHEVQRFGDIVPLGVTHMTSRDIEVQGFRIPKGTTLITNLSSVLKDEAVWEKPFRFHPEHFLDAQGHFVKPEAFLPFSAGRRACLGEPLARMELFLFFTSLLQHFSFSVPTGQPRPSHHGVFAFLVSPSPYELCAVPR

A word on the IC50: it is the concentration that inhibits the measured activity by half. A high value points to a need for much substance. In general, Kd refers to the free concentration of one partner at which half of the binding sites on the other are occupied at equilibrium, for simple one-to-one binding. Lower therefore signals tighter binding. As a reminder, the solubility is the dissolved amount per volume that the medium holds. By Ki is commonly meant a dissociation constant, usually derived from enzyme kinetics or from competition with a known ligand. The compound `CC(C)(CO)c1cc(NC(=O)Nc2ccc(-c3cn4c(n3)sc3cc(OCCN5CCOCC5)ccc34)cc2)no1` [Compound I-1, 1-[5-(2-hydroxy-1,1-dimethyl-ethyl)-isoxazol-3-yl]-3-{4-[7-(2-morpholin-4-yl-ethoxy)-benzo[d]imidazo[2,1-b]thiazol-2-yl]-phenyl}-urea] registered an IC50 at 20 min in data set [1] greater than 40 µM. The Kd turned out to be 0.0088 µM in data set [2], 0.0055 µM in data set [5] and 0.0019 µM in data set [7]. Also, the solubility in data set [3] (HBSS buffer with 0.05% Polysorbate 80, pH 7.4, aqueous with cosolvent or surfactant or cyclodextrin, HBSS containing 0.05% Polysorbate 80, 2.5% DMSO, read-out: Average Aqueous Solubility, 0.05% Polysorbate 80) is 2 µM (≈ 1.15 µg/mL); in data set [3] (Hank's balanced salt solution (HBSS) buffer, aqueous buffer, HBSS pH 7.4, 2.5% DMSO, read-out: Average Aqueous Solubility, pH 7.4) it was less than 1 µM. Also, in data set [4] (CYP2C19), the Type of inhibition result is reported as “non-competitive inhibition; also recorded: weak non-competitive inhibitor”. Also, the Ki was found to be 1.7 µM in data set [4] (read-out: Best Fit KI, Competitive); 10.4 µM in data set [4] (read-out: Best Fit KI, Non-competitive); 7.4 µM in data set [4] (read-out: Best Fit KI′, Uncompetitive). The same compound came in with an IC50 in data set [6] of 15.5 µM.
